# Laboratory results reported in ChEMBL document CHEMBL2074095, “Molecular cloning of PEPT 2, a new member of the H+/peptide cotransporter family, from human kidney” (Biochim Biophys Acta, 1995).
# Residues, ends and D or L forms follow the SMILES beside them.
# Columns and labels:
# Assay type in all cases: functional, cell-based
# Parameters in all cases: scale not given: the % may be the effect or the level left
# [1] = biological target: T1, Solute carrier family 15 member 2 (Homo sapiens) (UniProt Q16348); experiment: TP_TRANSPORTER: inhibition of Gly-Sar uptake (Gly-Sar: 30 uM, Cephadroxil: 10000 uM) in PEPT2-expressing HeLa cells
# T1 sequence (whole entry): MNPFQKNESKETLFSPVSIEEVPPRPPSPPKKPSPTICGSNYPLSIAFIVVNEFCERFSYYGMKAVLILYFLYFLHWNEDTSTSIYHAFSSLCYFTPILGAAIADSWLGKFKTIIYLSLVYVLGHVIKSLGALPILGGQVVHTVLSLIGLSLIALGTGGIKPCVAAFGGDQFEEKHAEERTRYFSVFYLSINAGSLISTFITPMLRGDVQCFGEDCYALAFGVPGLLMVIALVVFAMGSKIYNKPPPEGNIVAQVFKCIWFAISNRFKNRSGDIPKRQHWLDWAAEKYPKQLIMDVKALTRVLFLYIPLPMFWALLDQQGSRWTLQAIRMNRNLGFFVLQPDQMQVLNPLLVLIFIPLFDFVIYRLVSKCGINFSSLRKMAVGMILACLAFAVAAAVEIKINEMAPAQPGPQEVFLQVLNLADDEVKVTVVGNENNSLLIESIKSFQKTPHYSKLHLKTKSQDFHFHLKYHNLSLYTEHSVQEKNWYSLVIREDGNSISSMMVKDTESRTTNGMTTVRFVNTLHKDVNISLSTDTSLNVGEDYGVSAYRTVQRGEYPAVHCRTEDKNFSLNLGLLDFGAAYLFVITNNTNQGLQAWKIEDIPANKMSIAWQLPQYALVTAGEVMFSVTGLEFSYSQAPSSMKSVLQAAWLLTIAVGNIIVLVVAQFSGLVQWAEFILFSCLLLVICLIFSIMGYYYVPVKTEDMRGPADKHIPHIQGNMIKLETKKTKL
# [2] = biological target: T1, Solute carrier family 15 member 2 (Homo sapiens); experiment: TP_TRANSPORTER: inhibition of Gly-Sar uptake (Gly-Sar: 30 uM, Cephalexin: 10000 uM) in PEPT2-expressing HeLa cells
# [3] = biological target: T1, Solute carrier family 15 member 2 (Homo sapiens); experiment: TP_TRANSPORTER: inhibition of Gly-Sar uptake (Gly-Sar: 30 uM, Ala-Gly-Pro: 10000 uM) in PEPT2-expressing HeLa cells
# [4] = biological target: T1, Solute carrier family 15 member 2 (Homo sapiens); experiment: TP_TRANSPORTER: inhibition of Gly-Sar uptake (Gly-Sar: 30 uM, Gly-Phe: 10000 uM) in PEPT2-expressing HeLa cells
smiles,measurement,setting,value
CC1=C(C(=O)O)N2C(=O)[C@@H](NC(=O)[C@H](N)c3ccc(O)cc3)[C@H]2SC1,Activity,[1],0%
CC1=C(C(=O)O)N2C(=O)[C@@H](NC(=O)[C@H](N)c3ccccc3)[C@H]2SC1,Activity,[2],0%
C[C@H](N)C(=O)NCC(=O)N1CCC[C@H]1C(=O)O (H-Ala-Gly-Pro-OH),Activity,[3],0%
NCC(=O)N[C@@H](Cc1ccccc1)C(=O)O (H-Gly-Phe-OH),Activity,[4],0%
